Results reported in PubChem BioAssay AID256 (DTP/NCI, 2004).
Several values for one entry are separate records, joined by “and”; a condition that tells them apart may be missing. Equal entries are not always repeated. Toxic doses and inconclusive results are not listed. How the source made its calls: active means survival T/C of 150% or more; inactive means T/C below 125% in these data.

Tested on: CD2F1 mice, L1210 leukemia ip, survival T/C
Assay: NCI In Vivo Anticancer Drug Screen. Data for tumor model L1210 Leukemia (intraperitoneal) in CD2F1 (CDF1) mice
Conditions: endpoint: mean survival time, higher = longer survival
How it was run: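 In this screen, transplantable tumors were grown in mice given either the compound or its vehicle. Results were expressed as the treated measurement relative to the control measurement.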

[1] = dose: 100.0 mg/kg/injection, schedule: Q01DX009 (ip), vehicle: saline with Tween-80
[2] = dose: 200.0 mg/kg/injection, schedule: Q01DX009 (ip), vehicle: saline with Tween-80
[3] = dose: 400.0 mg/kg/injection, schedule: Q01DX009 (ip), vehicle: saline with Tween-80
[4] = dose: 100.0 mg/kg/injection, schedule: Q04DX003 (ip), vehicle: saline
[5] = dose: 200.0 mg/kg/injection, schedule: Q04DX003 (ip), vehicle: saline
[6] = dose: 400.0 mg/kg/injection, schedule: Q04DX003 (ip), vehicle: saline
[7] = dose: 100.0 mg/kg/injection, schedule: Q04DX003 (ip), vehicle: saline with Tween-80
[8] = dose: 200.0 mg/kg/injection, schedule: Q04DX003 (ip), vehicle: saline with Tween-80
[9] = dose: 400.0 mg/kg/injection, schedule: Q04DX003 (ip), vehicle: saline with Tween-80
[10] = dose: 100.0 mg/kg/injection, schedule: Q04DX002 (ip), vehicle: saline with Tween-80
[11] = dose: 200.0 mg/kg/injection, schedule: Q04DX002 (ip), vehicle: saline with Tween-80
[12] = dose: 400.0 mg/kg/injection, schedule: Q04DX002 (ip), vehicle: saline with Tween-80
[13] = dose: 100.0 mg/kg/injection, schedule: Q01DX001 (ip), vehicle: saline with Tween-80
[14] = dose: 200.0 mg/kg/injection, schedule: Q01DX001 (ip), vehicle: saline with Tween-80
[15] = dose: 400.0 mg/kg/injection, schedule: Q01DX001 (ip), vehicle: saline with Tween-80
[16] = dose: 50.0 mg/kg/injection, schedule: Q04DX003 (ip), vehicle: saline with Tween-80
[17] = dose: 25.0 mg/kg/injection, schedule: Q01DX009 (ip), vehicle: saline with Tween-80
[18] = dose: 100.0 mg/kg/injection, schedule: Q01DX001 (ip), vehicle: saline
[19] = dose: 50.0 mg/kg/injection, schedule: Q01DX009 (ip), vehicle: saline with Tween-80

Measured: T/C

O=C(CNC(=O)c1ccccc1)N/N=C/Cc1ccccc1
inactive: [1] 97 % of control | [2] 104 % of control | [3] 104 % of control

CCNC(=O)N1CC2CCC(C1)N2C
inactive: [4] 101 % of control | [5] 96 % of control | [6] 90 % of control

O=C1c2cccc(Oc3ccccc3)c2C(=O)c2cccc(Oc3ccccc3)c21
inactive: [1] 94 % of control | [7] 96 % of control | [2] 89 % of control | [8] 97 % of control | [3] 98 % of control | [9] 94 % of control

COC(=O)C1CCCCC1C(=O)OC (stereo not drawn)
inactive: [10] 97 % of control | [7] 104 % of control | [11] 97 % of control | [8] 98 % of control | [12] 101 % of control

Cc1cn(C2CCC3(C)C(=CCC4C3CCC3(C)C(C(C)CCCC(C)C)CCC43)C2)c(=O)[nH]c1=O (stereo not drawn)
inactive: dose: 37.5 mg/kg/injection, schedule: Q01DX001 (ip), vehicle: Klucel (hydroxypropylcellulose) (HPC) 88 % of control | dose: 75.0 mg/kg/injection, schedule: Q01DX001 (ip), vehicle: Klucel (hydroxypropylcellulose) (HPC) 91 % of control | dose: 150.0 mg/kg/injection, schedule: Q01DX001 (ip), vehicle: Klucel (hydroxypropylcellulose) (HPC) 91 % of control | dose: 300.0 mg/kg/injection, schedule: Q01DX001 (ip), vehicle: Klucel (hydroxypropylcellulose) (HPC) 91 % of control

CCOCc1cccc2ccccc12
inactive: [1] 98 % of control | [2] 102 % of control | [3] 94 % of control

CCCCC(=O)Nc1ccc(Cl)cc1
inactive: [13] 101 % of control | [14] 95 % of control | [15] 106 % of control

Cn1c2c(c3ccccc31)C(=O)CC2(C)C
inactive: [16] 103 % of control | [13] 93 % of control | [7] 89 % of control | [14] 98 % of control

COc1cc2c(cc1OC)C(c1cc(OC)c(OC)c(OC)c1)=NCC2
inactive: [10] 104 % of control | [11] 104 % of control | [8] 87 % of control | [12] 100 % of control | [9] 87 % of control

O=N[O-].[Co].[N-]=C=S.[NH2-].[NH2-].[NH2-].[NH2-]
inactive: dose: 12.5 mg/kg/injection, schedule: Q01DX009 (ip), vehicle: saline with Tween-80 115 % of control | [17] 115 % of control

CC(C)(C)c1ccc(C(=O)C2CC2)cc1
inactive: [7] 98 % of control | [8] 96 % of control

COC(=O)c1cc(-c2ccccc2)nc2c1ccc1ccccc12
inactive: [18] 94 % of control

CC(=O)OCCN1CCN(CCCN2c3ccccc3Sc3ccc(C(F)(F)F)cc32)CC1
inactive: dose: 2.6 mg/kg/injection, schedule: Q03HX024 (ip), vehicle: saline 108 % of control | dose: 4.0 mg/kg/injection, schedule: Q03HX024 (ip), vehicle: saline 104 % of control | dose: 6.0 mg/kg/injection, schedule: Q03HX024 (ip), vehicle: saline 121 % of control | dose: 12.5 mg/kg/injection, schedule: Q01DX001 (ip), vehicle: saline 118 % of control and 105 % of control | dose: 12.5 mg/kg/injection, schedule: Q01DX009 (ip), vehicle: saline 100 % of control | dose: 25.0 mg/kg/injection, schedule: Q01DX001 (ip), vehicle: saline 117 % of control and 118 % of control | dose: 25.0 mg/kg/injection, schedule: Q01DX009 (ip), vehicle: saline 95 % of control | dose: 50.0 mg/kg/injection, schedule: Q01DX001 (ip), vehicle: saline 114 % of control | dose: 50.0 mg/kg/injection, schedule: Q01DX009 (ip), vehicle: saline 89 % of control | [18] 109 % of control

C=C(C)c1ccc(C)c(C)c1
inactive: [1] 93 % of control | [2] 98 % of control | [3] 114 % of control

CSc1n[nH]c(N)n1
inactive: [7] 94 % of control | [8] 94 % of control | [9] 90 % of control

Oc1cc(O)c2c(c1)OC(c1ccc(O)c(O)c1)C(O)C2c1c(O)cc(O)c2c1OC(c1ccc(O)c(O)c1)C(O)C2 (stereo not drawn)
inactive: [4] 107 % of control | [5] 95 % of control | [6] 104 % of control

OCc1ccccc1OC1OC(CO)C(O)C(O)C1O (stereo not drawn)
inactive: dose: 50.0 mg/kg/injection, schedule: Q01DX009 (ip), vehicle: Klucel (hydroxypropylcellulose) (HPC) 96 % of control | dose: 100.0 mg/kg/injection, schedule: Q01DX009 (ip), vehicle: Klucel (hydroxypropylcellulose) (HPC) 101 % of control | dose: 200.0 mg/kg/injection, schedule: Q01DX009 (ip), vehicle: Klucel (hydroxypropylcellulose) (HPC) 108 % of control

O=P1(CCBr)NCCCO1 (stereo not drawn)
inactive: dose: 62.5 mg/kg/injection, schedule: Q01DX001 (ip), vehicle: water 100 % of control | dose: 125.0 mg/kg/injection, schedule: Q01DX001 (ip), vehicle: water 97 % of control | dose: 250.0 mg/kg/injection, schedule: Q01DX001 (ip), vehicle: water 94 % of control | dose: 500.0 mg/kg/injection, schedule: Q01DX001 (ip), vehicle: water 97 % of control | dose: 750.0 mg/kg/injection, schedule: Q01DX001 (ip), vehicle: water 102 % of control

COc1cc2ccc3c[n+](C)ccc3c2cc1OC
inactive: dose: 25.0 mg/kg/injection, schedule: Q01DX009 (ip), vehicle: water 102 % of control and 100 % of control | dose: 50.0 mg/kg/injection, schedule: Q01DX009 (ip), vehicle: water 107 % of control and 104 % of control | dose: 100.0 mg/kg/injection, schedule: Q01DX009 (ip), vehicle: water 94 % of control and 114 % of control

CN(C)C1=NC1(C)C.CN(C)C1=NC1(C)C.[Cl][Pd][Cl]
inactive: dose: 3.13 mg/kg/injection, schedule: Q04DX003 (ip), vehicle: distilled water + Tween-80 96 % of control | dose: 6.25 mg/kg/injection, schedule: Q04DX003 (ip), vehicle: distilled water + Tween-80 101 % of control | dose: 12.5 mg/kg/injection, schedule: Q04DX003 (ip), vehicle: distilled water + Tween-80 96 % of control | dose: 25.0 mg/kg/injection, schedule: Q04DX003 (ip), vehicle: distilled water + Tween-80 105 % of control | dose: 50.0 mg/kg/injection, schedule: Q04DX003 (ip), vehicle: distilled water + Tween-80 101 % of control | dose: 100.0 mg/kg/injection, schedule: Q04DX003 (ip), vehicle: distilled water + Tween-80 114 % of control

CC1=C(C#[N+][O-])C(C)(C)CCC1
inactive: dose: 75.0 mg/kg/injection, schedule: Q01DX001 (ip), vehicle: other 102 % of control | dose: 150.0 mg/kg/injection, schedule: Q01DX001 (ip), vehicle: other 97 % of control | dose: 300.0 mg/kg/injection, schedule: Q01DX001 (ip), vehicle: other 105 % of control

CN(C)N=Nc1cc(C(F)(F)F)cc(C(F)(F)F)c1
inactive: [17] 104 % of control | [19] 101 % of control | [1] 98 % of control | [2] 95 % of control | [3] 104 % of control

O=C(O)C1C2CC(C1C(=O)O)C(C(=O)O)C2C(=O)O (stereo not drawn)
inactive: [13] 94 % of control | [1] 87 % of control | [14] 88 % of control | [2] 87 % of control | [15] 95 % of control

NNN1CCN(N)CC1
inactive: [13] 103 % of control | [14] 111 % of control | [15] 91 % of control

COC(=O)C#CBr
inactive: dose: 6.25 mg/kg/injection, schedule: Q04DX003 (ip), vehicle: other 103 % of control | dose: 12.5 mg/kg/injection, schedule: Q04DX003 (ip), vehicle: other 96 % of control

CCOC(=O)C1=C(C)NC(C)=C(C(=O)OCC)C1c1ccccc1
inactive: [19] 98 % of control | [16] 97 % of control | [1] 102 % of control | [7] 97 % of control and 100 % of control | [2] 102 % of control | [8] 90 % of control and 96 % of control | [9] 103 % of control

NC(N)=NC(N)=Nc1ccc(-c2ccccc2)cc1
inactive: dose: 25.0 mg/kg/injection, schedule: Q01DX001 (ip), vehicle: saline with Tween-80 100 % of control | dose: 50.0 mg/kg/injection, schedule: Q01DX001 (ip), vehicle: saline with Tween-80 103 % of control | [13] 93 % of control

O=C(O)c1sc(C(=O)O)c(-c2ccccc2)c1-c1ccccc1
inactive: dose: 100.0 mg/kg/injection, schedule: Q01DX009 (ip), vehicle: saline sonified 92 % of control | dose: 200.0 mg/kg/injection, schedule: Q01DX009 (ip), vehicle: saline sonified 90 % of control | dose: 400.0 mg/kg/injection, schedule: Q01DX009 (ip), vehicle: saline sonified 103 % of control
